Laboratory results reported in the NIST ThermoML archive (doi:10.1021/je700260f).

Conditions: 283.14 K, Liquid, Vibrating tube method

FC(C(F)(F)F)C(F)(F)F [1,1,1,2,3,3,3-heptafluoropropane]
Conditions | mass density [kg/m3]
933 kPa | 1452.5
962 kPa | 1452.6
988 kPa | 1452.7
1029 kPa | 1453
1062 kPa | 1453.3
1091 kPa | 1453.4
1127 kPa | 1453.7
1160 kPa | 1453.8
1193 kPa | 1454
1227 kPa | 1454.2
1264 kPa | 1454.5
1297 kPa | 1454.5
1331 kPa | 1454.9
1362 kPa | 1454.9
1400 kPa | 1455.2
1438 kPa | 1455.5
1476 kPa | 1455.6
1508 kPa | 1455.9
1543 kPa | 1456
1576 kPa | 1456.3
1621 kPa | 1456.5
1656 kPa | 1456.8
1696 kPa | 1456.8
1725 kPa | 1457.1
1760 kPa | 1457.3
1800 kPa | 1457.5
1829 kPa | 1457.7
1869 kPa | 1457.9
1899 kPa | 1458.1
1939 kPa | 1458.4
1978 kPa | 1458.6
2027 kPa | 1458.8
2062 kPa | 1459.1
2097 kPa | 1459.2
2137 kPa | 1459.6
2167 kPa | 1459.6
2214 kPa | 1460
2245 kPa | 1460.1
2282 kPa | 1460.4
2317 kPa | 1460.6
2349 kPa | 1460.8
2385 kPa | 1460.9
2431 kPa | 1461.1
2457 kPa | 1461.1
2499 kPa | 1461.5
2536 kPa | 1461.6
2578 kPa | 1461.9
2615 kPa | 1462.1
3150 kPa | 1465
3179 kPa | 1465.2
3208 kPa | 1465.5
3236 kPa | 1465.6
3261 kPa | 1465.6
3292 kPa | 1465.8
3316 kPa | 1465.9
3349 kPa | 1466.2
3370 kPa | 1466.4
3404 kPa | 1466.4
3440 kPa | 1466.6
3467 kPa | 1466.9
3502 kPa | 1467
3528 kPa | 1467
3555 kPa | 1467.3
3582 kPa | 1467.3
3606 kPa | 1467.5
3630 kPa | 1467.6
3997 kPa | 1469.6
4037 kPa | 1469.8
4059 kPa | 1469.8
4089 kPa | 1470.1
4112 kPa | 1470.1
4138 kPa | 1470.4
4161 kPa | 1470.5
4194 kPa | 1470.6
4220 kPa | 1470.8
4246 kPa | 1470.9
4268 kPa | 1471.1
4295 kPa | 1471.2
4326 kPa | 1471.4
4370 kPa | 1471.5
4397 kPa | 1471.6
4431 kPa | 1471.8
4454 kPa | 1472
4485 kPa | 1472.1
4521 kPa | 1472.3
4552 kPa | 1472.4
4587 kPa | 1472.7
4611 kPa | 1472.8
4642 kPa | 1472.9
4662 kPa | 1473.1
4691 kPa | 1473.2
4714 kPa | 1473.3
4746 kPa | 1473.5
4770 kPa | 1473.6
4833 kPa | 1473.9
4872 kPa | 1474.1
4976 kPa | 1474.5
5454 kPa | 1477.2
5490 kPa | 1477.3
5691 kPa | 1478.2
5724 kPa | 1478.4
5757 kPa | 1478.6
5782 kPa | 1478.8
5822 kPa | 1478.8
5855 kPa | 1479
5879 kPa | 1479.1
5908 kPa | 1479.3
5934 kPa | 1479.4
5968 kPa | 1479.6
6005 kPa | 1479.8
6027 kPa | 1480
6058 kPa | 1480
6101 kPa | 1480.2
6135 kPa | 1480.5
6165 kPa | 1480.5
6229 kPa | 1480.8
6973 kPa | 1484.5
7472 kPa | 1486.7
7512 kPa | 1487.1
7539 kPa | 1487.1
7568 kPa | 1487.2
7596 kPa | 1487.1
7625 kPa | 1487.3
7646 kPa | 1487.8
7680 kPa | 1487.8
7705 kPa | 1487.9
7731 kPa | 1488
7762 kPa | 1488.1
7796 kPa | 1488.3
7826 kPa | 1488.4
7851 kPa | 1488.5
7877 kPa | 1488.7
7906 kPa | 1488.9
7932 kPa | 1488.9
7965 kPa | 1489
7991 kPa | 1489.2
8025 kPa | 1489.4
8050 kPa | 1489.5
8079 kPa | 1489.7
8109 kPa | 1489.6
8138 kPa | 1489.9
8164 kPa | 1490.1
8197 kPa | 1490
8223 kPa | 1490.2
8257 kPa | 1490.4
8291 kPa | 1490.6
8322 kPa | 1490.7
10618 kPa | 1500.7
10644 kPa | 1500.8
10678 kPa | 1500.9
10708 kPa | 1501.2
10744 kPa | 1501.3
11092 kPa | 1502.7
11124 kPa | 1502.9
11146 kPa | 1503
11176 kPa | 1503.1
11211 kPa | 1503.2
11232 kPa | 1503.2
11263 kPa | 1503.4
11289 kPa | 1503.6
11324 kPa | 1503.9
11358 kPa | 1503.9
11384 kPa | 1503.9
11414 kPa | 1504.1
11455 kPa | 1504.2
11478 kPa | 1504.3
11508 kPa | 1504.4
11538 kPa | 1504.5
11565 kPa | 1504.7
11601 kPa | 1504.8
11631 kPa | 1505
11663 kPa | 1505
11698 kPa | 1505.4
11725 kPa | 1505.4
11760 kPa | 1505.6
11791 kPa | 1505.6
11822 kPa | 1505.7
11844 kPa | 1505.9
11874 kPa | 1506
11901 kPa | 1506.1
11923 kPa | 1506.3
11958 kPa | 1506.3
11993 kPa | 1506.4
12020 kPa | 1506.5
12055 kPa | 1506.7
12082 kPa | 1506.9
12816 kPa | 1509.7
12856 kPa | 1510.1
12892 kPa | 1510.2
12918 kPa | 1510.3
12955 kPa | 1510.4
12996 kPa | 1510.6
13027 kPa | 1510.6
13054 kPa | 1510.9
13090 kPa | 1510.9
13123 kPa | 1511
13165 kPa | 1511.2
13197 kPa | 1511.2
13235 kPa | 1511.5
13290 kPa | 1511.7
13323 kPa | 1511.8
13385 kPa | 1512
13417 kPa | 1512.2
13454 kPa | 1512.2
13483 kPa | 1512.4
